These results are taken from patent US20220387397A1, “COMPOUNDS AND COMPOSITIONS FOR TREATING CONDITIONS ASSOCIATED WITH NLRP ACTIVITY” (Novartis AG, priority 2018, published 2022).

The subject of the experiment is IL-1β production in PMA-differentiated THP-1 cells. Briefly: IL-1β production in PMA-differentiated THP-1 cells stimulated with gramicidin (hTHP-1 assay, 2% bovine serum). Format: cell-based, human. The settings on record: hTHP-1 assay containing 2% bovine serum. The procedure:
The following protocols are suitable for testing the activity of the compounds dislcosed herein. Bioassay 1:
IL-1β Production in PMA-Differentiated THP-1 Cells Stimulated with Gramicidin.
Cell culture-THP-1 cells were purchased from the American Type Culture Collection and sub-cultured according to instructions from the supplier. Prior to experiments, cells were cultured in RPMI 1640 containing 10% heat inactivated FBS, penicillin (100 units/ml) and streptomycin ([…]), and maintained in log phase prior to experimental setup. Prior to the experiment THP-1 were treated with PMA (Phorbol 12-myristate 13-acetate) ([…]) for 24 hours. The day of the experiment the media was removed and attaching cells were treated with trypsin for 2 minutes, cells were then collected, washed with PBS (phosphate buffer saline), spin down, resuspended in 2% heat inactivated FBS with RPMI at a concentration of 1×10^6 cells/ml, and 100 ul was plated in a 96 well plate. Cells were incubated with compounds for 1 hours and then stimulated with Gramicidin (5 μM) (Enzo) for 2 hours. Cell free supernatant was collected and the production of […] was evaluated by ELISA. Compounds were dissolved in dimethyl sulfoxide (DMSO) and added to the culture medium to achieve desired concentration (e.g. 100, 30, 10, 3, 1, 0.3 or 0.1 μM). A vehicle only control was run concurrently with each experiment. Final DMSO concentration was 1%.
THP-1 cells were purchased from the American Type Culture Collection and sub-cultured according to instructions from the supplier. Prior to experiments, cells were cultured in complete RPMI 1640 (containing 10% heat inactivated FBS, penicillin (100 units/ml) and streptomycin ([…])), and maintained in log phase prior to experimental setup. Prior to the experiment THP-1 were treated with PMA (Phorbol 12-myristate 13-acetate) (20 ng/ml) for 16-18 hours. On the day of the experiment the media was removed and adherent cells were detached with trypsin for 5 minutes. Cells were then harvested, washed with complete RPMI 1640, spun down, resuspended in RPMI 1640 (containing 2% heat inactivated FBS, penicillin (100 units/ml) and streptomycin ([…]). The cells were plated in a 384-well plate at a density of 50,000 cells/well (final assay volume […]). Compounds were dissolved in dimethyl sulfoxide (DMSO) and added to the culture medium to achieve desired concentration (e.g. 100, 33, 11, 3.7, 1.2, 0.41, 0.14, 0.046, 0.015, 0.0051, […]). Cells were incubated with compounds for 1 hour and then stimulated with gramicidin (5 μM) (Enzo) for 2 hours. Cell free supernatant was collected and the production of IL-1 was evaluated by HTRF (cisbio). A vehicle only control was run concurrently with each experiment. Final DMSO concentration was 0.38%.
Compounds tested with protocols 1 and 2 provided IC50 values that are within the variability of the assay.
Tables 13 and 14 show the biological activity of compounds in hTHP-1 assay containing 2% bovine serum: <1 μM=“++++”; ≥1 and <5 μM=“+++”; ≥5 and <15 μM=“++”; ≥15 and <60 μM=“+”.

Setting [1] is: Homo sapiens, THP-1, Table 14, given as a numeric bound.
Setting [2] is: Homo sapiens, THP-1, Table 14, by Final Target Number.
Where [3] appears, read: Homo sapiens, THP-1, Table 13, by Example #.

The IC50 is the concentration that inhibits the measured activity by half. For `CC(=O)c1ccc(F)c(S(=O)(=O)NC(=O)Cc2c(C(C)C)cc(F)cc2C(C)C)c1` [Example 55], the half-inhibitory concentration (IC50) (Table 13, by Example #) fell in the range of 1 to 5 µM. Molecule “N-(4-pentafluorophenylsulfonyl)-2-(4-fluoro-2,6-diisopropylphenyl)acetamide [Example 39]” showed an IC50 (Table 13, by Example #) of 15 to 60 µM.

Under setting [1], `CC(C)c1cc(F)cc(C(C)C)c1CC(=O)NS(=O)(=O)c1ccc(C(C)N(C)C(=O)CCc2cn(CCOCCOCCOCCNC(=O)CCCC[C@@H]3SC[C@@H]4NC(=O)N[C@@H]43)nn2)cc1` (some centres unmarked) [Compound 415] registered a half-inhibitory concentration (IC50) greater than 30 µM.

With `CC(C)c1cc(C#N)cc(C(C)C)c1CC(=O)NS(=O)(=O)c1cnc(C(C)(C)O)nc1` [Compound 409], the half-maximal inhibitory concentration (IC50) under setting [2] is 5 to 15 µM.

For the molecule `CNC(=O)c1ccc(S(=O)(=O)NC(=O)Cc2c(C(C)C)cc(C#N)c(F)c2C(C)C)cc1O` [Compound 402], the IC50 under setting [2] is 15 to 60 µM.

In the case of `CC(C)c1cc(C#N)c(F)c(C(C)C)c1CC(=O)NS(=O)(=O)c1cnc(C(C)(O)CO[C@@H]2O[C@H](CO)[C@@H](O)[C@H](O)[C@H]2O)s1` (some centres unmarked) [Compound 405], the IC50 under setting [2] fell in the range of 5 to 15 µM. `CC(C)c1cc(F)cc(C(C)C)c1CC(=O)NS(=O)(=O)c1ccc([C@@H](C)N(C)C(=O)CCc2cn(CCOCCOCCOCCNC(=O)CCCC[C@@H]3SC[C@@H]4NC(=O)N[C@@H]43)nn2)cc1` [Compound 410] showed an IC50 under setting [1] greater than 30 µM. In turn, `CC(C)c1cc(C2(C(F)(F)F)N=N2)cc(C(C)C)c1CC(=O)NS(=O)(=O)c1ccc(CN(C)C(=O)CCCN(C)C(=O)CCOCCOCCOCCOCCNC(=O)CCCC[C@H]2SC[C@@H]3NC(=O)N[C@@H]32)cc1` [Compound 412] returned an IC50 under setting [1] greater than 30 µM. The molecule `CC(C)c1cc(C#N)c(F)c(C(C)C)c1CC(=O)NS(=O)(=O)c1cccc(NC(=O)CCc2cn(CCNC(=O)OC(C)(C)C)nn2)c1` [Compound 408] showed an IC50 under setting [1] greater than 30 µM. As to `CC(C)c1cc(C#N)c(F)c(C(C)C)c1CC(=O)NS(=O)(=O)c1cnc(C(C)(O)CO)s1` (centres unmarked) [Compound 401], the IC50 under setting [2] fell in the range of 1 to 5 µM. `CC(C)c1cc(C#N)c(F)c(C(C)C)c1CC(=O)NS(=O)(=O)c1cc(C(C)(C)O)no1` [Compound 416] returned an IC50 under setting [2] of less than 1 µM. `CNS(=O)(=O)c1ccc(S(=O)(=O)NC(=O)Cc2c(C(C)C)cc(C#N)c(F)c2C(C)C)c(Cl)c1` [Compound 404]: under setting [2], the IC50 was less than 1 µM. In turn, `CC(C)c1cc(C#N)c(F)c(C(C)C)c1CC(=O)NS(=O)(=O)c1cnc(C(C)(C)O)nc1` [Compound 406] registered an IC50 under setting [2] of 5 to 15 µM. As to `CC(C)(O)c1csc(S(=O)(=O)NC(=O)Cc2c3c(cc4c2CCC4)CCC3)c1` [Example 7, 2-(1,2,3,5,6,7-hexahydros-indacen-4-yl)-N-(4-(2-hydroxypropan-2-yl)thiophen-2-ylsulfonyl)acetamide], the concentration for half-maximal inhibition (IC50) under setting [3] was 5 to 15 µM. `CC(C)c1cc(C#N)c(F)c(C(C)C)c1CC(=O)NS(=O)(=O)c1cccc(-n2cc(CNC(=O)OC(C)(C)C)nn2)c1` [Compound 407] had an IC50 under setting [2] of 15 to 60 µM. For `CCc1cc(C(C)C)c(CC(=O)NS(=O)(=O)c2ccc(CN(C)C)cc2)c(C(C)C)c1` [Example 97, N-((4-((dimethylamino)methyl)phenyl)sulfonyl)-2-(4-ethyl-2,6-diisopropylphenyl)acetamide], the IC50 under setting [3] fell in the range of 5 to 15 µM. Under setting [1], `CC(C)c1cc(F)cc(C(C)C)c1CC(=O)NS(=O)(=O)c1ccc([C@H](C)N(C)C(=O)CCc2cn(CCOCCOCCOCCNC(=O)CCCC[C@H]3SC[C@@H]4NC(=O)N[C@@H]43)nn2)cc1` [Compound 411] came in with an IC50 greater than 30 µM.
